System: plasma proteins
Test: LC/MSMS protein expression in plasma (COG0102)
Type: in vivo, human
Description: Plasma and CSF protein expression were measured by LC/MSMS in samples drawn prior to dosing (Day 0) and at end of dosing (Day 28) and were compared within each patient and between dosing groups.
This trial (ClinicalTrials.gov NCT02907567) was a randomized, double-blind, placebo-controlled clinical trial in mild to moderate Alzheimer's patients (MMSE 18-26) (See FIG. 1 for clinical trial design). The trial was conducted at six sites in Australia. Patients were randomized into placebo (n=5) or CT1812-treated groups: 90 mg (n=4), 280 mg (n=5) or 560 mg (n=5) and treated once daily for 28 days. Clinical chemistry was done at Sydpath (Sydney, AU). Pharmacokinetics were done at CPR Pharma Services (Adelaide, AU). Cerebrospinal fluid samples were taken at screening and day 21-28 of treatment and aliquoted. Plasma samples were taken at screening or Day 1 (one sample) and day 14-28, then spun down to separate plasma and aliquoted. One set of CSF samples was analyzed for Alzheimer's disease biomarkers; protein measurements (Aβ42, A1340, total tau, tau phosphorylated at threonine 181 (phosphorylated tau), NFL and neurogranin) were performed using commercially available ELISA assays from Fujirebio according to the manufacturer's instructions (INNOTEST β-AMYLOID(1-42), INNOTEST β-AMYLOID(1-40), INNOTEST hTau Ag, INNOTEST PHOSPHO-TAU(181P), Uman Diagnostics NFL assay). Neurogranin was measured with a sandwich ELISA method using antibodies Ng2 and Ng22 developed at the University of Gotteborg (Kvartsberg et al. 2015). Identical aliquots of CSF, and plasma were analyzed for protein expression changes via LC/MSMS at Caprion (see below).
Matched screening and day 28 plasma and CSF samples were analyzed by LC/MSMS at Caprion Biosciences Inc. Plasma was depleted of high and medium abundance proteins using a commercial immunoaffinity column, IgY14-Supermix (Sigma). CSF was depleted of only 14 high abundance proteins using MARS-14 (Agilent). All samples were digested with trypsin and plasma samples were fractionated by strong cation exchange chromatography (3 fractions). Both CSF and plasma samples were analyzed using a NanoAcquity UPLC coupled to a Q Exactive MS. […] The 12 most intense peaks per survey scan with charge states 2-8 fragmented and scanned with a mass range from 200 to 2000 m/z at a resolution of 17,500. Raw spectrometer data files for each LC-MS run were aligned independently using Elucidator software (Rosetta Biosoftware). The MS/MS spectra were matched to corresponding peptide sequences found in the Uniprot Human protein database (January 2017) using Mascot software, allowing for up to 2 missed cleavages, a peptide tolerance of 20 ppm, and an MS/MS tolerance of 0.05 Da. Outlier detection was performed by determining the average log-intensity of all isotope groups (IG) over injection order for all samples. Samples with an average value greater than 2 standard deviations from the mean were flagged for investigation. Following data transformation and normalization, expression analysis of the identified isotope groups was performed and the statistical significance of each comparison was assessed with a parametric, linear mixed model (LMM) and a non-parametric Wilcoxon ranked test (ranked p-values). Expression analysis was also performed at the peptide and protein levels, which used the same methodology as above, but applied to peptide/protein intensities, derived by rolling-up the corresponding isotope group intensities. Isotope groups not detected in at least half of the samples in either of the two groups being compared were not used for the roll-up.

[1] = plasma, treated group vs baseline

Which results are given for `CC(C)(C)Oc1cc(CCC(C)(C)N2Cc3ccc(S(C)(=O)=O)cc3C2)ccc1O` [CT1812]?
Sema3F, % change treated vs placebo (CSF & Plasma): 47%; Sema3F, With CT1812 (CSF & Plasma, direction of change): significantly increased and ↑*; Sema3F, % change baseline treated (CSF & Plasma, treated group vs baseline): 10%; ACOX1, % change treated vs placebo (plasma): 42%; ANXA1, % change treated vs placebo (plasma): −61%; ANXA2, % change treated vs placebo (plasma): −54%; AZGP1, % change treated vs placebo (plasma): 28%; B4GALT1, % change treated vs placebo (plasma): 36%; C4BPA, % change treated vs placebo (plasma): 44%; CFH, % change treated vs placebo (plasma): 20%; Cathepsin S, % change treated vs placebo (plasma): 58%; Clusterin, % change treated vs placebo (plasma): 17%; FUT11, % change treated vs placebo (plasma): 39%; GALT6, % change treated vs placebo (plasma): 33%; GPR116, % change treated vs placebo (plasma): 27%; GXYLT1, % change treated vs placebo (plasma): 82%; HINT1, % change treated vs placebo (plasma): −131%; HMGB1, % change treated vs placebo (plasma): −315%; HRG, % change treated vs placebo (plasma): 61%; Hex A, % change treated vs placebo (plasma): 34%; Hex B, % change treated vs placebo (plasma): 36%; LCAT, % change treated vs placebo (plasma): 17%; NRP2, % change treated vs placebo (plasma): 46%; Neprilysin, % change treated vs placebo (plasma): 4717%; PCK2, % change treated vs placebo (plasma): 74%; POMGNT1, % change treated vs placebo (plasma): 41%; PRDX6, % change treated vs placebo (plasma): −130%; SERPING1, % change treated vs placebo (plasma): 24%; ST3GAL1, % change treated vs placebo (plasma): 31%; SUMO3, % change treated vs placebo (plasma): −77%; TRIM35, % change treated vs placebo (plasma): 99%; TXN, % change treated vs placebo (plasma): −98%; WDR81, % change treated vs placebo (plasma): 142%; ACOX1, With CT1812 (plasma, direction of change): ↑*; ANXA1, With CT1812 (plasma, direction of change): significantly reduced and ↓*; ANXA2, With CT1812 (plasma, direction of change): ↓*; AZGP1, With CT1812 (plasma, direction of change): ↑*; B4GALT1, With CT1812 (plasma, direction of change): ↑*; C4BPA, With CT1812 (plasma, direction of change): significantly increased and ↑*; CFH, With CT1812 (plasma, direction of change): ↑*; Cathepsin S, With CT1812 (plasma, direction of change): significantly increase and ↑*; Clusterin, With CT1812 (plasma, direction of change): increased and ↑; FUT11, With CT1812 (plasma, direction of change): ↑*; GALT6, With CT1812 (plasma, direction of change): ↑*; GPR116, With CT1812 (plasma, direction of change): ↑; GXYLT1, With CT1812 (plasma, direction of change): significantly increased and ↑*; HINT1, With CT1812 (plasma, direction of change): significantly reduced and ↓*; HMGB1, With CT1812 (plasma, direction of change): significantly reduced and ↓*; HRG, With CT1812 (plasma, direction of change): significantly increased and ↑*; Hex A, With CT1812 (plasma, direction of change): significantly increased and ↑*; Hex B, With CT1812 (plasma, direction of change): significantly increased and ↑*; LCAT, With CT1812 (plasma, direction of change): ↑; NRP2, With CT1812 (plasma, direction of change): ↑*; Neprilysin, With CT1812 (plasma, direction of change): ↑*; PCK2, With CT1812 (plasma, direction of change): ↑; POMGNT1, With CT1812 (plasma, direction of change): ↑*; PRDX6, With CT1812 (plasma, direction of change): ↓*; SERPING1, With CT1812 (plasma, direction of change): significantly increased and ↑*; ST3GAL1, With CT1812 (plasma, direction of change): ↑*; SUMO3, With CT1812 (plasma, direction of change): ↓*; TRIM35, With CT1812 (plasma, direction of change): ↑*; TXN, With CT1812 (plasma, direction of change): significantly reduced and ↓*; WDR81, With CT1812 (plasma, direction of change): significantly increased and ↑*; GALT6, With CT1812 (plasma, direction of change, listed as CT-1812): significantly increased; ACOX1, % change baseline treated [1]: 10%; ANXA1, % change baseline treated [1]: −18%; ANXA2, % change baseline treated [1]: −20%; AZGP1, % change baseline treated [1]: 5%; B4GALT1, % change baseline treated [1]: 16%; C4BPA, % change baseline treated [1]: 21%; CFH, % change baseline treated [1]: 6%; Cathepsin S, % change baseline treated [1]: 27%; Clusterin, % change baseline treated [1]: 4%; FUT11, % change baseline treated [1]: 18%; GALT6, % change baseline treated [1]: 15%; GPR116, % change baseline treated [1]: 9%; GXYLT1, % change baseline treated [1]: 38%; HINT1, % change baseline treated [1]: −43%; HMGB1, % change baseline treated [1]: −67%; HRG, % change baseline treated [1]: 10%; Hex A, % change baseline treated [1]: 13%; Hex B, % change baseline treated [1]: 19%; LCAT, % change baseline treated [1]: 6%; NRP2, % change baseline treated [1]: 10%; Neprilysin, % change baseline treated [1]: 48%; PCK2, % change baseline treated [1]: 76%; POMGNT1, % change baseline treated [1]: 14%; PRDX6, % change baseline treated [1]: −37%; SERPING1, % change baseline treated [1]: 4%; ST3GAL1, % change baseline treated [1]: 5%; SUMO3, % change baseline treated [1]: −35%; TRIM35, % change baseline treated [1]: 3%; TXN, % change baseline treated [1]: −33%; WDR81, % change baseline treated [1]: 33%; GALNT1, GALNT2, GALNT4, and GALNT5 expression (with treatment): increase with treatment

Reference: patent publication US20200338045A1, “ISOINDOLINE COMPOSITIONS AND METHODS FOR TREATING NEURODEGENERATIVE DISEASE” (priority 2017, published 2020)
